Measured values published in ChEMBL document CHEMBL3779893, “Identification of novel GLUT inhibitors” (Bioorg Med Chem Lett, 2016).

Experiments:
[1] = molecular target: T1, Solute carrier family 2, facilitated glucose transporter member 1 (Homo sapiens, UniProt P11166); test: Inhibition of human GLUT1 expressed in DLD1 cells assessed as ATP production co-incubated with 100 mM glucose for 16 hrs by CellTiter-Glo assay in presence of oxidative phosphorylation inhibitor rotenone; format: cell-based, DLD-1
T1 sequence (P11166 whole entry): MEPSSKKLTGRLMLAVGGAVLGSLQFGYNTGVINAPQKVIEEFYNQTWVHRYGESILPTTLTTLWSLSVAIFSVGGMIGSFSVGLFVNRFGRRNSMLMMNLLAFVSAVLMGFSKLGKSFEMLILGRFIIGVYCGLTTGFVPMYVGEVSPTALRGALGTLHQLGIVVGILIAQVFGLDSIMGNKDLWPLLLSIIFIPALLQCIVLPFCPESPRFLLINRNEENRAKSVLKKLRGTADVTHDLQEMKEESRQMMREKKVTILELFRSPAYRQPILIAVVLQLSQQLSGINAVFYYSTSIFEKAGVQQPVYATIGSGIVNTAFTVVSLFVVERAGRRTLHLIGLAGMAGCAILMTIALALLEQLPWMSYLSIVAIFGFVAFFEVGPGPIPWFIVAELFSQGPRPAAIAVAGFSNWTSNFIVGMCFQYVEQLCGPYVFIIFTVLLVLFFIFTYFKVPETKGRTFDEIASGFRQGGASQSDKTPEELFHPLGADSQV

[2] = molecular target: T2, Solute carrier family 2, facilitated glucose transporter member 2 (Homo sapiens, UniProt P11168); test: Inhibition of human GLUT2 expressed in CHO cells assessed as ATP production co-incubated with 30 mM fructose for 16 hrs by CellTiter-Glo assay in presence of oxidative phosphorylation inhibitor rotenone; format: cell-based
T2 sequence (P11168 whole entry): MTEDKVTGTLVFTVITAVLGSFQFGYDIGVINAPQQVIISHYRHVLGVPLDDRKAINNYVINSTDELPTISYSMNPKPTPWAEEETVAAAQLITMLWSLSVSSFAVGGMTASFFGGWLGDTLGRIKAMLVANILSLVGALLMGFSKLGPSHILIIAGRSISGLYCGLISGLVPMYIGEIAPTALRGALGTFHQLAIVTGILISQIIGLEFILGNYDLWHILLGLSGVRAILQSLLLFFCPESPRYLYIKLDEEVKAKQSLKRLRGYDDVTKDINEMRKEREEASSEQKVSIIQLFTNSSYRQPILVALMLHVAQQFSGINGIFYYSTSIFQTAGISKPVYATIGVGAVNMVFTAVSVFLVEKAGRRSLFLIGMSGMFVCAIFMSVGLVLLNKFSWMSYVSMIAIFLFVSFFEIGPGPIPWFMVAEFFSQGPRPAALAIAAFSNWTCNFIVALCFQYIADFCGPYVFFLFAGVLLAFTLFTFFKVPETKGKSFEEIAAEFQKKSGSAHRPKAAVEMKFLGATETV

[3] = molecular target: T3, Solute carrier family 2, facilitated glucose transporter member 3 (Homo sapiens, UniProt P11169); test: Inhibition of human GLUT3 expressed in GLUT1 knock-out DLD1 cells assessed as ATP production co-incubated with 300 mM glucose for 16 hrs by CellTiter-Glo assay in presence of oxidative phosphorylation inhibitor rotenone; format: cell-based, DLD-1
T3 sequence (P11169 whole entry): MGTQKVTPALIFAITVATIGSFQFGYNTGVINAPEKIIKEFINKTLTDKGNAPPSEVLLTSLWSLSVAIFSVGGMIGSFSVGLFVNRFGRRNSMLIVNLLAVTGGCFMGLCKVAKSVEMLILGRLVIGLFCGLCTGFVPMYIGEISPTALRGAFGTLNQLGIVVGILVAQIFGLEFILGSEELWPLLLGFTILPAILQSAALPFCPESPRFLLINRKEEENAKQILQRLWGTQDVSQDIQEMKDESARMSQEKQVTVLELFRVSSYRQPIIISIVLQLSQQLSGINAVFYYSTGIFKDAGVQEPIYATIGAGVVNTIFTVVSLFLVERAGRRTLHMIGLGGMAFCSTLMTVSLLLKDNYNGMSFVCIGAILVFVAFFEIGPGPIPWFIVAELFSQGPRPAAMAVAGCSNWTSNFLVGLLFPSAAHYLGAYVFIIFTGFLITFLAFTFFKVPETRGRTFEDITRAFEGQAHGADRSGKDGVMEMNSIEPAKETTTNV

[4] = Intrinsic clearance in rat hepatocytes; format: ADME, cell-based, Hepatocyte; conditions: read-out: CLH (converted)
[5] = Intrinsic clearance in human liver microsomes; format: ADME; conditions: read-out: CLH (converted)

| IC50 [1] [nM] | IC50 [2] [nM] | IC50 [3] [nM] | CLint scaled [4] [mL/min/kg] | CLint scaled [5] [mL/min/kg] | Compound |
| --- | --- | --- | --- | --- | --- |
| 10 | 1000 | 250 | – | – | COc1ccccc1N1CCN(c2ncnc3c2cnn3-c2ccccc2C)CC1 |
| 510 | 8000 | 940 | – | – | COc1ccccc1N1CCN(c2ncnc3c2cnn3-c2ccccn2)CC1 |
| > 10000 | > 10000 | > 10000 | – | – | FC(F)(F)c1ccccc1N1CCN(c2ncnc3c2cnn3-c2ccccc2)CC1 |
| 53 | > 10000 | 630 | – | – | COc1ccccc1N1CCN(c2ncnc3c2[nH]c(=O)n3-c2ccccc2)CC1 |
| 9 | 510 | 60 | – | – | COc1ccncc1N1CCN(c2ncnc3c2cnn3-c2ccccc2)CC1 |
| 1200 | > 10000 | 540 | – | – | COc1c(C#N)cccc1N1CCN(c2ncnc3c2cnn3-c2ccccc2)CC1 |
| 50 | 10000 | 96 | – | – | COc1ccccc1N1CCN(c2ncnc3c2cnn3-c2cccc(C)c2)CC1 |
| 110 | 1200 | 1600 | – | – | COc1cccc(F)c1N1CCN(c2ncnc3c2cnn3-c2ccccc2)CC1 |
| 5 | 100 | 37 | – | – | COc1ccc(C(N)=O)cc1N1CCN(c2ncnc3c2cnn3-c2ccccc2)CC1 |
| > 10000 | > 10000 | > 10000 | – | – | COc1ccccc1N1C[C@H]2C[C@@H]1CN2c1ncnc2c1cnn2-c1ccccc1 |
| 14 | 1400 | 120 | – | – | COc1ccccc1N1CCN(c2ncnc3c2cnn3-c2ccccc2)CC1C (stereo not given) |
| 27 | 3500 | 64 | – | – | COc1ccccc1N1CCN(c2ncnc3c2ncn3-c2ccccc2)CC1 |
| 150 | 1700 | 170 | – | – | COc1cc(C#N)ccc1N1CCN(c2ncnc3c2cnn3-c2ccccc2)CC1 |
| 230 | 2600 | 170 | – | – | COc1ccc(-n2ncc3c(N4CCN(c5ccccc5OC)CC4)ncnc32)cc1 |
| 1500 | 10000 | 3000 | – | – | COc1ccccc1N1CCN(c2ncnc3c2cnn3-c2ccc(C)cc2)CC1 |
| 49 | 3300 | 430 | – | – | COc1ccccc1N1CCN(c2ncnc3c2nnn3-c2ccccc2)CC1 |
| 180 | 1360 | 680 | – | – | COc1ncccc1N1CCN(c2ncnc3c2cnn3-c2ccccc2)CC1 |
| 39 | 220 | 69 | – | – | N#Cc1cccc(N2CCN(c3ncnc4c3cnn4-c3ccccc3)CC2)c1 |
| 4 | 21 | 8 | – | – | COc1ccccc1N1CCCN(c2ncnc3c2cnn3-c2ccccc2)CC1 |
| 1900 | > 10000 | > 10000 | – | – | COc1ccccc1C1CCN(c2ncnc3c2cnn3-c2ccccc2)CC1 |
| 1200 | 4400 | 1600 | – | – | COc1ccccc1N1CCN(c2ncnc3c2cnn3-c2ccncc2)CC1 |
| 230 | – | 1510 | – | – | COc1cnccc1N1CCN(c2ncnc3c2cnn3-c2ccccc2)CC1 |
| 1 | > 10000 | 10 | 43.3 | 6.17 | COc1ccc(F)cc1N1CCN(c2ncnc3c2cnn3-c2ccccc2)CC1 |
| 30 | 880 | 320 | – | – | COc1ccccc1N1CCN(c2ncnc3c2cnn3-c2cc(F)ccc2OC)CC1 |
| 1810 | 5990 | 2050 | – | – | N#Cc1ccccc1N1CCN(c2ncnc3c2cnn3-c2ccccc2)CC1 |
| 7 | 60 | 60 | – | – | Oc1ccccc1N1CCN(c2ncnc3c2cnn3-c2ccccc2)CC1 |
| 290 | 1210 | 540 | – | – | Fc1cccc(N2CCN(c3ncnc4c3cnn4-c3ccccc3)CC2)c1 |

| IC50 [1] [nM] | IC50 [2] [nM] | IC50 [3] [nM] | CLint scaled [4] [mL/min/kg] | CLint scaled [5] [mL/min/kg] | Compound |
| --- | --- | --- | --- | --- | --- |
| 8 | > 10000 | 90 | – | – | COc1ccccc1N1CCN(c2ncnc3c2cnn3-c2cc(F)cc(F)c2)CC1 |
| > 10000 | > 10000 | > 10000 | – | – | FC(F)(F)Oc1ccccc1N1CCN(c2ncnc3c2cnn3-c2ccccc2)CC1 |
| 470 | – | 1200 | – | – | COc1ccccc1N1CCC(c2ncnc3c2cnn3-c2ccccc2)CC1 |
| 17 | > 10000 | 200 | – | – | COc1ccccc1N1CCN(c2ncnc3c2cnn3-c2ccc(C#N)cc2)CC1 |
| 60 | 950 | 70 | – | – | COc1cccnc1N1CCN(c2ncnc3c2cnn3-c2ccccc2)CC1 |
| 80 | 7000 | – | – | – | COc1ccccc1N1CCN(c2ncnc3c2cnn3-c2ncccc2F)CC1 |
| > 10000 | > 10000 | > 10000 | – | – | OC1CCCCC1N1CCN(c2ncnc3c2cnn3-c2ccccc2)CC1 (stereo not given) |
| 270 | 1120 | 680 | – | – | Fc1ccccc1N1CCN(c2ncnc3c2cnn3-c2ccccc2)CC1 |
| 180 | 1480 | 320 | – | – | COc1cccc(N2CCN(c3ncnc4c3cnn4-c3ccccc3)CC2)c1 |
| 300 | 600 | 4000 | – | – | COc1ccccc1N1CCN(c2ccnc3c2cnn3-c2ccccc2)CC1 |
| 17 | > 10000 | 46 | – | – | COc1ccccc1N1CCN(c2ncnc3c2cnn3-c2ccc(F)cc2)CC1 |
| 410 | 2100 | 950 | – | – | COc1ccccc1N1CCN(c2ncnc3c2cnn3C(C)c2ccccc2)CC1 (stereo not given) |
| 2400 | > 10000 | 10000 | – | – | COc1c(F)cccc1N1CCN(c2ncnc3c2cnn3-c2ccccc2)CC1 |
| 200 | 900 | 170 | – | – | COc1cccc(-n2ncc3c(N4CCN(c5ccccc5OC)CC4)ncnc32)c1 |
| 50 | 1200 | 110 | – | – | COc1ccccc1N1CCN(c2ncnc3c2cnn3-c2ccccc2OC)CC1 |
| 2300 | > 10000 | 4100 | – | – | COc1ccccc1N1C[C@@H]2C[C@H]1CN2c1ncnc2c1cnn2-c1ccccc1 |
| 100 | – | 340 | – | – | COc1ccc(-n2ncc3c(N4CCN(c5ccccc5OC)CC4)ncnc32)cn1 |
| 4400 | – | 2200 | – | – | COc1ccccc1N1CC2(C1)CN(c1ncnc3c1cnn3-c1ccccc1)C2 |
| 1770 | 8700 | 1770 | – | – | COc1ccc(N2CCN(c3ncnc4c3cnn4-c3ccccc3)CC2)cc1 |
| 750 | 6000 | 1500 | – | – | COc1ccccc1N1CCN(c2ncnc3c2cnn3-c2cccnc2)CC1 |
| 120 | 2500 | 480 | – | – | COc1ccccc1N1CCN(c2ncnc3c2cnn3-c2ccccc2)C(C)C1 (stereo not given) |
| 10 | > 10000 | 40 | – | – | COc1cc(F)ccc1N1CCN(c2ncnc3c2cnn3-c2ccccc2)CC1 |
| 4000 | 5000 | 2000 | – | – | COc1ccccc1N1CCN(c2nccc3c2cnn3-c2ccccc2)CC1 |
| > 10000 | > 10000 | > 10000 | – | – | COc1ccccc1N1CCN(c2nnnc3c2cnn3-c2ccccc2)CC1 |
| 20 | > 10000 | 50 | – | – | COc1ccc(C#N)cc1N1CCN(c2ncnc3c2cnn3-c2ccccc2)CC1 |
| 33 | – | 350 | – | – | COc1ccccc1N1CCN(c2ncnc3c2cnn3-c2cccc(C#N)c2)CC1 |
